The values below come from patent US20210270801A1, “TOPOGRAPHICALLY GUIDED CELL MIGRATION DEVICES AND METHODS” (priority 2018, published 2021).

The experiment deals with MCF10A cells. Kind of experiment: Impedimetric collective cell migration assay with proliferation inhibitor. Type of experiment: cell-based. As to conditions: 1 ng/ml. How it is done: In experiments designed to validate the proper functioning of devices, systems and methods for CMAPs of the present disclosure, MCF10A cells, a non-tumorigenic mammary epithelial cell line, were chosen as the cell model to validate whether a Nafion-nanotextured substrate is suitable for cell growth and migration. Cell monolayers were grown to cover a half of the area of each well to achieve a uniform condition at the beginning of the experiment. An elastomeric silicone (polydimethylsiloxane or PDMS) block was attached to the Nafion-patterned surface in each well, and then the MCF10A cells were seeded into the notch of the PDMS block at a seeding density of 20,000 cells per well. After 24 hours of incubation, the cells grew into a cell monolayer in the cell-seeding region and the PDMS block in each well was removed to initiate an impedimetric recording of collective cell migration. Cells migrated collectively as a cell sheet in a migration direction toward the other side of the well along the direction of nanogrooves and reached the end of the nanotextured migration area after 60-hour of migration.
Additional validation studies were carried out to determine whether collective cell migration behaviors are affected by the nanotextured cell-interface surface, which mimics the topography of in vivo cell migration microenvironment. MCF10A cells were grown on both nanotextured and untextured surfaces and the distances between the cell sheet border at 0 hour and 60 hours were measured.
Identifying effective drugs that target tumor metastasis is one of the ultimate goals of cancer migration assays. For this reason, a CMAP of the present disclosure was used to assess its capability to detect drug effects by using widely applied inhibitors. In this experiment, 1 ng/ml mitomycin C was used to inhibit MCF10A cell proliferation to determine whether collective cell migration is still faster on Nafion-nanotextured surfaces than on the untextured surfaces, after eliminating proliferation as a confounding factor.

On to `CO[C@@]12[C@H](COC(N)=O)C3=C(C(=O)C(C)=C(N)C3=O)N1C[C@@H]1N[C@@H]12` [mitomycin C], for which the collective migration result (Nafion-nanotextured (NP) surface, compared with UP untreated, P<0.05) is recorded as “continued to migrate with alacrity, even outpacing their UP untreated counterparts”. For the setting “both nanotextured (NP) and untextured (UP) groups, impedance at 10 kHz”, the “collective migration after proliferation inhibition” value is “substantially slowed but did not inhibit collective migration”. In addition, the “collective migration / change in impedance over the duration” value (untextured (UP) surface) is listed as “migrated minimally as expected with no significant change in impedance”.
